Measurements published in patent US9481659B2, “Selective heterocyclic sphingosine 1 phosphate receptor modulators” (Celgene International II SÀRL, priority 2011, dated 2016).

Each compound was assayed against S1P1/EDG1 (Homo sapiens, UniProt P21453) (assay: S1P1 CRE-bla CHOK1 reporter assay, inhibition of Forskolin induced cAMP). Details: agonist activity range; S1P1 CRE-bla CHOK1 cells, 2 μM Forskolin; read-out: S1P1 ACTIVITY.
Format: cell-based
Experimental: Generation of S1P1-Mediated Inhibition of cAMP Reporter Assay
A mammalian expression plasmid containing S1P1/EDG1 cloned into pcDNA3.1 was purchased from Missouri S&T cDNA Resource Centre. […] S1P1/pcDNA3.1 was transfected into the CRE-bla CHO K1 (Invitrogen) cell line, and stable single cell clones were selected using standard techniques.
S1P1 CRE-Bla CHOK1 Reporter Assay—Characterization of S1P1 Agonists
Cells were seeded into 384-well black wall/clear bottom plates at 10^4 cells/well/19.5 μl assay media (DMEM-phenol free, 0.5% charcoal/dextran stripped serum, 2 mM glutamine, 0.1 mM NEAA, 1 mM Na-Pyruvate, 25 mM Hepes) and incubated for 18 hrs at 37° C. in 5% CO2. Dose response curves (10-point) were generated in 10 mM Hepes, 0.1% Pluronic F127, in the presence of Forskolin. Cells were treated with 0.5 μl compound in the presence of 2 μM Forskolin for 4 hrs at 37° C. The FRET-based β-lactamase fluorescent substrate (LiveBLAzer™-FRET B/G Loading Kit CC4-AM; Invitrogen) was prepared according to manufacturer's directions, and incubated with cells for 2 hrs at room temperature.

Sequence of S1P1/EDG1 (P21453 whole entry): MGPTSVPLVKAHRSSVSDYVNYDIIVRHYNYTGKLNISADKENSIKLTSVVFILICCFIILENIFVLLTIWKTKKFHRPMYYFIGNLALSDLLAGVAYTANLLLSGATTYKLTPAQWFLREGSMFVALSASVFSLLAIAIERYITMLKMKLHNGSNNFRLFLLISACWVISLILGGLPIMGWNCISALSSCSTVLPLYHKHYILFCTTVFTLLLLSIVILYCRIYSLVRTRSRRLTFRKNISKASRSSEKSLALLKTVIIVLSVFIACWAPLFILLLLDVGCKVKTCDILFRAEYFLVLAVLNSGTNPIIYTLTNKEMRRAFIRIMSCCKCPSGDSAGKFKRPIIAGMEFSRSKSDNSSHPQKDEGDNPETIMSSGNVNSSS

Row | SMILES | EC50 [nM]
1 | CC(C)Oc1ccc(-c2nnc(-c3cccc4c3CCC[C@H]4NS(C)(=O)=O)s2)cc1C#N [Compound 278, (R)—N-(5-(5-(3-cyano-4-isopropoxyphenyl)-1,3,4-thiadiazol-2-yl)-1,2,3,4-tetrahydronaphthalen-1-yl)methanesulfonamide] | 0.05 to 0.5
2 | CC(C)Oc1ccc(-c2ncc(-c3cccc4c3CC[C@H]4NS(=O)(=O)CCN3CCOCC3)s2)cc1C#N [Compound 121] | 0.5 to 5
3 | CC(C)Oc1ccc(-c2ncc(-c3cccc4c3CC[C@H]4NS(=O)(=O)CC(=O)O)s2)cc1C#N [Compound 158, (R)-2-(N-(4-(2-(3-cyano-4-isopropoxyphenyl)thiazol-5-yl)-2,3-dihydro-1H-inden-1-yl)sulfamoyl)acetic acid] | < 0.05
4 | CC(C)Oc1ccc(-c2nc(-c3cccc4c3CC[C@@H]4NS(=O)(=O)CCO)ns2)cc1C#N [Compound 314, (S)—N-(4-(5-(3-cyano-4-isopropoxyphenyl)-1,2,4-thiadiazol-3-yl)-2,3-dihydro-1H-inden-1-yl)-2-hydroxyethanesulfonamide] | 0.5 to 5
5 | COC(=O)CS(=O)(=O)N[C@@H]1CCc2c(-c3cnc(-c4ccc(OC(C)C)c(C#N)c4)s3)cccc21 [Compound 154, (R)-methyl 2-(N-(4-(2-(3-cyano-4-isopropoxyphenyl)thiazol-5-yl)-2,3-dihydro-1H-inden-1-yl)sulfamoyl)acetate] | 0.05 to 0.5
6 | CC(C)Oc1ccc(-c2ncc(-c3cccc4c3CC[C@H]4NS(=O)(=O)CCN3CCC3)s2)cc1C#N [Compound 127] | 0.5 to 5
7 | CNC(=O)CN[C@@H]1CCCc2c(-c3nnc(-c4ccc(OC(C)C)c(C#N)c4)s3)cccc21 [Compound 305] | 0.05 to 0.5
8 | CC(C)Oc1ccc(-c2nnc(-c3cccc4c3CCC[C@@H]4NS(=O)(=O)CCCO)s2)cc1C#N [Compound 291] | 0.05 to 0.5
9 | COC(=O)CCS(=O)(=O)N[C@@H]1CCc2c(-c3cnc(-c4ccc(OC(C)C)c(C#N)c4)s3)cccc21 [Compound 156] | 0.05 to 0.5
10 | CC(C)Oc1ccc(-c2nnc(-c3cccc4c3CCC[C@H]4NCc3ccncc3)s2)cc1C#N [Compound 262] | 0.5 to 5
11 | CC(C)Oc1ccc(-c2ncc(-c3cccc4c3CC[C@H]4NCC(=O)N3CC[C@@H](O)C3)s2)cc1C#N [Compound 103] | 0.05 to 0.5
12 | CC(C)Oc1ccc(-c2nnc(-c3cccc4c3CCC[C@H]4NCc3cccnc3)s2)cc1C#N [Compound 263, (R)-2-isopropoxy-5-(5-(5-((pyridin-3-ylmethyl)amino)-5,6,7,8-tetrahydronaphthalen-1-yl)-1,3,4-thiadiazol-2-yl)benzonitrile] | 0.5 to 5
13 | CC(C)Oc1ccc(-c2ncc(-c3cccc4c3CC[C@H]4NC(=O)Cc3ccccc3)s2)cc1C#N [Compound 83] | > 5
14 | CCS(=O)(=O)N[C@@H]1CCc2c(-c3cnc(-c4ccc(OC(C)C)c(C#N)c4)s3)cccc21 [Compound 113] | 0.05 to 0.5
15 | CC(C)Oc1ccc(-c2ncc(-c3cccc4c3CC[C@H]4NCCO)s2)cc1C#N [Compound 91, (R)-5-(5-(1-((2-hydroxyethyl)amino)-2,3-dihydro-1H-inden-4-yl)thiazol-2-yl)-2-isopropoxybenzonitrile] | 0.5 to 5
16 | CC(C)Oc1ccc(-c2nnc(-c3cccc4c3CCC[C@@H]4NCc3cnc[nH]3)s2)cc1C#N [Compound 267] | 0.5 to 5
17 | CC(C)Oc1ccc(-c2ncc(-c3cccc4c3CC[C@H]4NCc3ncc[nH]3)s2)cc1C#N [Compound 109, (R)-5-(5-(1-(((1H-imidazol-2-yl)methyl)amino)-2,3-dihydro-1H-inden-4-yl)thiazol-2-yl)-2-isopropoxybenzonitrile] | 0.5 to 5

Row | SMILES | EC50 [nM]
18 | CC(C)Oc1ccc(-c2ncc(-c3cccc4c3CC[C@H]4NC(=O)N3CCC(CC(=O)O)CC3)s2)cc1C#N [Compound 200] | 0.05 to 0.5
19 | CC(C)Oc1ccc(-c2nnc(-c3cccc4c3CC[C@H]4O)s2)cc1C#N [Compound 2, (R)-5-(5-(1-hydroxy-2,3-dihydro-1H-inden-4-yl)-1,3,4-thiadiazol-2-yl)-2-isopropoxybenzonitrile] | 0.05 to 0.5
20 | CC(C)Oc1ccc(-c2nnc(-c3cccc4c3CCC[C@@H]4NC(=O)c3ccncc3)s2)cc1C#N [Compound 241] | 0.5 to 5
21 | CC(C)Oc1ccc(-c2ncc(-c3cccc4c3CC[C@H]4NS(=O)(=O)CCN3CCCC3)s2)cc1C#N [Compound 130] | 0.5 to 5
22 | CC(C)Oc1ccc(-c2ncc(-c3cccc4c3CC[C@H]4NC(=O)CN)s2)cc1C#N [Compound 77] | 0.05 to 0.5
23 | CC(C)Oc1ccc(-c2nnc(-c3cccc4c3CCC[C@H]4NC(=O)c3ccncc3)s2)cc1C#N [Compound 233] | 0.5 to 5
24 | CC(C)Oc1ccc(-c2nnc(-c3cccc4c3CC[C@H]4NC(=O)N3CC(C(=O)O)C3)s2)cc1C#N [Compound 50] | 0.05 to 0.5
25 | CC(C)Oc1ccc(-c2nnc(-c3cccc4c3CCC[C@@H]4NCC(=O)O)s2)cc1C#N [Compound 302, (S)-2-((5-(5-(3-cyano-4-isopropoxyphenyl)-1,3,4-thiadiazol-2-yl)-1,2,3,4-tetrahydronaphthalen-1-yl)amino)acetic acid] | 0.05 to 0.5
26 | CC(C)Oc1ccc(-c2ncc(-c3cccc4c3CC[C@H]4NC(=O)N3CCC[C@H](O)C3)s2)cc1C#N [Compound 197] | 0.5 to 5
27 | CC(C)Oc1ccc(-c2nnc(-c3cccc4c3CCC4NS(=O)(=O)CCN3CC[C@@H](O)C3)s2)cc1C#N (stereo in doubt) [Compound 37, N—((S)-4-(5-(3-cyano-4-isopropoxyphenyl)-1,3,4-thiadiazol-2-yl)-2,3-dihydro-1H-inden-1-yl)-2-((R)-3-hydroxypyrrolidin-1-yl)ethanesulfonamide] | 0.5 to 5
28 | CC(C)Oc1ccc(-c2ncc(-c3cccc4c3CC[C@H]4NS(=O)(=O)CCN3CC[C@@H](O)C3)s2)cc1C#N [Compound 133] | 0.5 to 5
29 | CC(C)Oc1ccc(-c2nnc(-c3cccc4c3CCC[C@@H]4NS(N)(=O)=O)s2)cc1C#N [Compound 276, (S)—N-(5-(5-(3-cyano-4-isopropoxyphenyl)-1,3,4-thiadiazol-2-yl)-1,2,3,4-tetrahydronaphthalen-1-yl)sulfamide] | 0.05 to 0.5
30 | CC(C)Oc1ccc(-c2nc(-c3cccc4c3CC[C@@H]4NS(N)(=O)=O)ns2)cc1C#N [Compound 309, (S)—N-(4-(5-(3-cyano-4-isopropoxyphenyl)-1,2,4-thiadiazol-3-yl)-2,3-dihydro-1H-inden-1-yl) sulfamide] | 0.05 to 0.5
31 | COCCS(=O)(=O)N[C@@H]1CCCc2c(-c3nnc(-c4ccc(OC(C)C)c(C#N)c4)s3)cccc21 [Compound 280, (R)—N-(5-(5-(3-cyano-4-isopropoxyphenyl)-1,3,4-thiadiazol-2-yl)-1,2,3,4-tetrahydronaphthalen-1-yl)-2-methoxyethanesulfonamide] | 0.5 to 5
32 | CC(C)Oc1ccc(-c2nnc(-c3cccc4c3CCC[C@@H]4NS(=O)(=O)CC(=O)O)s2)cc1C#N [Compound 288, (S)-2-(N-(5-(5-(3-cyano-4-isopropoxyphenyl)-1,3,4-thiadiazol-2-yl)-1,2,3,4-tetrahydronaphthalen-1-yl)sulfamoyl) acetic acid] | 0.05 to 0.5
33 | COC(=O)CS(=O)(=O)N[C@H]1CCCc2c(-c3nnc(-c4ccc(OC(C)C)c(C#N)c4)s3)cccc21 [Compound 284, (S)-methyl 2-(N-(5-(5-(3-cyano-4-isopropoxyphenyl)-1,3,4-thiadiazol-2-yl)-1,2,3,4-tetrahydronaphthalen-1-yl)sulfamoyl)acetate] | 0.5 to 5
